In US20240335443A1, “IMIDAZOLOPYRIDAZINE OR PYRAZOLOPYRIMIDINE COMPOUNDS AND COMPOSITIONS” (Anrui Biomedical Technology (Guangzhou) Co., Ltd., priority 2021, published 2024):
Like-named read-outs stand apart in the source and are kept apart here. One block for each molecule: values may come before it.

Experiments:
[1] = test system: IL-23 induced STAT3 in HEK-Blue™ IL-23 cells; test: IL-23 induced STAT3 QUANTI-Blue reporter assay in HEK-Blue IL-23 cells; format: cell-based; details: IL-23 0.1 ng/mL, SEAP levels, class symbols, read-out: IL23 reporter assay (IC50 nM)
Method: Biological Example 2. IL-23 Induced STAT3 QUANTI-Blue in HEK-Blue™ IL-23 Cells
HEK-Blue™ IL-23 cells were prepared at 2×10^5 cells/ml for adding 5000 cell/well and incubate plates containing compounds+cells for 1 hour at 37° C. Prepare IL-23 (treatment at final conc. 0.1 ng/mL) during incubation and add 2 ul per well of prepared cytokine in media to appropriate wells. The plate is incubated for overnight at 37° C. The next day, QUANTI-Blue solution is prepared. 18 ul of QUANTI-Blue solution per well is added into a new 384-well clear flat bottom plate, then add 2 ul of induced and treated HEK-Blue cell supernatant from overnight plate. Incubate the plate at 37° C. for 2 hours and determine SEAP levels.

[2] = target: T1, N-terminal His-tagged TYK2 pseudokinase domain (Homo sapiens, UniProt P29597); test: TYK2 JH2 domain SPA binding assay; details: displacement of H3 probe (20 nM), 30 min room temperature; class symbols
T1 construct: the N-terminal His-tagged TYK2 pseudokinase domain; His (N); purchased Pharmaron
T1 sequence (P29597 589-875 limits assumed): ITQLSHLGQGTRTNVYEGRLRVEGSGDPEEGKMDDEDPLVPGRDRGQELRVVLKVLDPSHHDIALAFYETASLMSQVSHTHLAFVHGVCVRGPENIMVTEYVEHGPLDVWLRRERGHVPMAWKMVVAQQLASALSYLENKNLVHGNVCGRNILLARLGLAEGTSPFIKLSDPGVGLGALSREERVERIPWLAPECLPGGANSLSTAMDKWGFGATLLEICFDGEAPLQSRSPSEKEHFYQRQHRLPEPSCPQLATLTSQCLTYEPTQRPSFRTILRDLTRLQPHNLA
Method: TYK2 JH2 Domain Binding Assay
After incubating at room temperature for 30 min, the inhibition was calculated by the displacement of [3H] 3 binding as determined by scintillation counting. Dose-response curves were generated to determine the concentration required to inhibit H3 probe binding by […] (IC50).

[3] = HEK-Blue IL-23, HEK-Blue IL-23 cells

Structure (SMILES): CNc1cc(Nc2cccn(C3CCC4(CC3)COC4)c2=O)nn2c(C(=O)N[C@@H]3C[C@@H]3F)cnc12 [Compound 73]
IC50 [1, 3]: < 10 nM
IC50 [2]: 10 to 100 nM

Structure (SMILES): [2H]C([2H])([2H])Nc1cc(Nc2cccn(-c3ccn(C([2H])([2H])[2H])n3)c2=O)nn2c(C(=O)N[C@@H]3C[C@H]4CCO[C@H]43)cnc12 [Compound 53]
IC50 [1, 3]: < 10 nM
IC50 [2]: 10 to 100 nM

Structure (SMILES): CNc1cc(Nc2cccn(-c3ccccn3)c2=O)nn2c(C(=O)NC(C)c3ncco3)cnc12 (racemic) [Compound 34]
IC50 [1, 3]: 10 to 100 nM
IC50 [2]: 10 to 100 nM

Structure (SMILES): [2H]C([2H])([2H])Nc1cc(Nc2cccn(C3C[C@H]4CC[C@@H](C3)O4)c2=O)nn2c(C(=O)N[C@@H]3C[C@@H]3F)cnc12 (stereo partly drawn) [Compound 80]
IC50 [1, 3]: 10 to 100 nM
IC50 [2]: 10 to 100 nM

Structure (SMILES): CNc1cc(Nc2cccn(-c3ccccn3)c2=O)nn2c(C(=O)NC3CCc4conc43)cnc12 (stereo not drawn) [Compound 7, N-(5,6-dihydro-4H-cyclopenta[c]isoxazol-6-yl)-8-(methylamino)-6-((2-oxo-2H-[1,2′-bipyridin]-3-yl)amino)imidazo[1,2-b]pyridazine-3-carboxamide]
IC50 [1, 3]: < 10 nM
IC50 [2]: < 10 nM

Structure (SMILES): [2H]C([2H])([2H])Nc1cc(Nc2cccc(N3CCCC3=O)n2)nn2c(C(=O)NC3C[C@H]4CCOC34)cnc12 (mixture of isomers) [Compound 31]
IC50 [1, 3]: < 10 nM
IC50 [2]: < 10 nM

Structure (SMILES): [2H]C([2H])([2H])Nc1cc(Nc2cccn([C@H]3C[C@@H](OC([2H])([2H])[2H])C3)c2=O)nn2c(C(=O)N[C@@H]3C[C@H]4CCO[C@H]43)cnc12 [Compound 87]
IC50 [1, 3]: 10 to 100 nM
IC50 [2]: 10 to 100 nM

Structure (SMILES): [2H]C([2H])([2H])Nc1cc(Nc2cccn(-c3ccccn3)c2=O)nc2c(C(=O)NC(C)c3ncco3)cnn12 (racemic) [Compound 35]
IC50 [1, 3]: 10 to 100 nM
IC50 [2]: 10 to 100 nM

Structure (SMILES): CNc1cc(Nc2cccn([C@H]3CCCOC3)c2=O)nn2c(C(=O)N[C@@H]3C[C@H]4CCO[C@H]43)cnc12 [Compound 65]
IC50 [1, 3]: < 10 nM
IC50 [2]: 10 to 100 nM

Structure (SMILES): CNc1cc(Nc2cccc(N3CCCC3=O)n2)nn2c(C(=O)NC3CCn4ccnc43)cnc12 (racemic) [Compound 29]
IC50 [1, 3]: < 10 nM
IC50 [2]: < 10 nM

Structure (SMILES): [2H]C([2H])([2H])Nc1cc(Nc2cccn(-c3ncccc3F)c2=O)nn2c(C(=O)N[C@@H]3C[C@H]4CCO[C@H]43)cnc12 [Compound 5, N-((1R,5S,7R)-2-oxabicyclo[3.2.0]heptan-7-yl)-6-((3′-fluoro-2-oxo-2H-[1,2′-bipyridin]-3-yl)amino)-8-((methyl-d3)amino)imidazo[1,2-b]pyridazine-3-carboxamide]
IC50 [1, 3]: < 10 nM
IC50 [2]: 10 to 100 nM

Structure (SMILES): CNc1cc(Nc2cccn(C3C[C@H]4CC[C@@H](C3)O4)c2=O)nc2c(C(=O)N[C@@H]3C[C@H]4CCO[C@H]43)cnn12 (stereo partly drawn) [Compound 76]
IC50 [1, 3]: 10 to 100 nM
IC50 [2]: 10 to 100 nM

Structure (SMILES): CNc1cc(Nc2cccn([C@H]3C[C@H](F)C3)c2=O)nn2c(C(=O)N[C@@H]3C[C@H]4CCO[C@H]43)cnc12 [Compound 90]
IC50 [1, 3]: 10 to 100 nM
IC50 [2]: 10 to 100 nM

Structure (SMILES): [2H]C([2H])([2H])Nc1cc(Nc2cccn([C@H]3C[C@H](OC([2H])([2H])[2H])C3)c2=O)nc2c(C(=O)N[C@@H]3C[C@H]4CCO[C@H]43)cnn12 [Compound 19, N-((1R,5S,7R)-2-oxabicyclo[3.2.0]heptan-7-yl)-5-((1-((1r,3r)-3-(methoxy-d3)cyclobutyl)-2-oxo-1,2-dihydropyridin-3-yl)amino)-7-((methyl-d3)amino)pyrazolo[1,5-a]pyrimidine-3-carboxamide]
IC50 [1, 3]: 10 to 100 nM
IC50 [2]: 10 to 100 nM

Structure (SMILES): [2H]C([2H])([2H])O[C@H]1C[C@@H](n2cccc(Nc3cc(NC)c4ncc(C(=O)N[C@@H]5C[C@H]6CCO[C@H]65)n4n3)c2=O)C1 [Compound 86]
IC50 [1, 3]: 10 to 100 nM
IC50 [2]: 10 to 100 nM

Structure (SMILES): [2H]C([2H])([2H])Nc1cc(Nc2cccn([C@H]3C[C@H](OC([2H])([2H])[2H])C3)c2=O)nn2c(C(=O)N[C@@H]3C[C@H]4CCO[C@H]43)cnc12 [Compound 84]
IC50 [1, 3]: 10 to 100 nM
IC50 [2]: 10 to 100 nM

Structure (SMILES): CNc1cc(Nc2cccn(-c3cc(C)n(C)n3)c2=O)nn2c(C(=O)N[C@@H]3C[C@H]4CCO[C@H]43)cnc12 [Compound 55]
IC50 [1, 3]: 10 to 100 nM
IC50 [2]: 10 to 100 nM

Structure (SMILES): CNc1cc(Nc2cccc3c2OCCC3)nc2c(C(=O)N[C@@H]3C[C@H]4CCO[C@H]43)cnn12 (racemic) [Compound 27]
IC50 [1, 3]: < 10 nM
IC50 [2]: < 10 nM

Structure (SMILES): [2H]C([2H])([2H])Nc1cc(Nc2cccn(-c3ccn(C)n3)c2=O)nn2c(C(=O)N[C@@H]3C[C@H]4CCO[C@H]43)cnc12 [Compound 52]
IC50 [1, 3]: < 10 nM
IC50 [2]: < 10 nM

Structure (SMILES): CNc1cc(Nc2cccn(C3CCC4(CC3)COC4)c2=O)nn2c(C(=O)N[C@@H]3C[C@H]4CCO[C@H]43)cnc12 [Compound 12, N-((1R,5S,7R)-2-oxabicyclo[3.2.0]heptan-7-yl)-8-(methylamino)-6-((2-oxo-1-(2-oxaspiro[3.5]nonan-7-yl)-1,2-dihydropyridin-3-yl)amino)imidazo[1,2-b]pyridazine-3-carboxamide]
IC50 [1, 3]: < 10 nM
IC50 [2]: < 10 nM

Structure (SMILES): [2H]C([2H])([2H])Nc1cc(Nc2cccn([C@@H]3C[C@H]4CCO[C@H]43)c2=O)nn2c(C(=O)N[C@@H]3C[C@H]4CCO[C@H]43)cnc12 [Compound 14, 6-((1-((1R,5S,7R)-2-oxabicyclo[3.2.0]heptan-7-yl)-2-oxo-1,2-dihydropyridin-3-yl)amino)-N-((1R,5S,7R)-2-oxabicyclo[3.2.0]heptan-7-yl)-8-((methyl-d3)amino)imidazo[1,2-b]pyridazine-3-carboxamide]
IC50 [1, 3]: < 10 nM
IC50 [2]: < 10 nM

Structure (SMILES): CNc1cc(Nc2cccn([C@H]3C[C@H](OC)C3)c2=O)nn2c(C(=O)N[C@@H]3C[C@@H]3F)cnc12 [Compound 99]
IC50 [1, 3]: 10 to 100 nM
IC50 [2]: 10 to 100 nM

Structure (SMILES): [2H]C([2H])([2H])Nc1cc(Nc2cccn([C@H]3CC[C@@H](OC([2H])([2H])[2H])CC3)c2=O)nn2c(C(=O)N[C@@H]3C[C@H]4CCO[C@H]43)cnc12 [Compound 64]
IC50 [1, 3]: 10 to 100 nM
IC50 [2]: 10 to 100 nM

Structure (SMILES): [2H]C([2H])([2H])Nc1cc(Nc2cccn([C@H]3C[C@H](OC(F)(F)F)C3)c2=O)nn2c(C(=O)N[C@@H]3C[C@H]4CCO[C@H]43)cnc12 [Compound 89]
IC50 [1, 3]: 10 to 100 nM
IC50 [2]: 10 to 100 nM

Structure (SMILES): CNc1cc(Nc2cccn(-c3ccccn3)c2=O)nc2c(C(=O)NC3CCn4ccnc43)cnn12 (stereo not drawn) [Compound 18, N-(6,7-dihydro-5H-pyrrolo[1,2-a]imidazol-7-yl)-7-(methylamino)-5-((2-oxo-2H-[1,2′-bipyridin]-3-yl)amino)pyrazolo[1,5-a]pyrimidine-3-carboxamide]
IC50 [1, 3]: < 10 nM
IC50 [2]: < 10 nM

Structure (SMILES): CNc1cc(Nc2cccn(-c3ccccc3)c2=O)nn2c(C(=O)NC3CCn4ncnc43)cnc12 (racemic) [Compound 47]
IC50 [1, 3]: < 10 nM
IC50 [2]: 10 to 100 nM

Structure (SMILES): CNc1cc(Nc2cccc3c2OCCC3)nc2c(C(=O)N[C@@H]3C[C@@H]4CCO[C@@H]43)cnn12 (racemic) [Compound 26]
IC50 [1, 3]: 10 to 100 nM
IC50 [2]: 10 to 100 nM

Second part, led by results:

IC50 [2]: 10 to 100 nM
Structure (SMILES): [2H]C([2H])([2H])Nc1cc(Nc2cccn(C3CC4(CCOC4)C3)c2=O)nc2c(C(=O)N[C@@H]3C[C@H]4CCO[C@H]43)cnn12 (single isomer, unassigned) [Compound 97a]
IC50 [1, 3]: 10 to 100 nM

IC50 [2]: 10 to 100 nM
Structure (SMILES): [2H]C([2H])([2H])Nc1cc(Nc2cccn(C3CC4(CCOC4)C3)c2=O)nn2c(C(=O)N[C@@H]3C[C@@H]3F)cnc12 (single isomer, unassigned) [Compound 102b]
IC50 ([1]; HEK-Blue IL-23 cells): 10 to 100 nM

IC50 [2]: > 1000 nM
Structure (SMILES): CNc1cc(Nc2cccn(-c3ccn(C)n3)c2=O)nn2c(C(=O)NC(C)c3ncco3)cnc12 (single isomer, unassigned) [Compound 49b]
IC50 ([1]; HEK-Blue IL-23 cells): ≥ 1000 nM

IC50 [2]: < 10 nM
Structure (SMILES): CNc1cc(Nc2cccc3c2OCCC3)nc2c(C(=O)NC(C)c3ncco3)cnn12 (single isomer, unassigned) [Compound 23b]
IC50 ([1]; HEK-Blue IL-23 cells): 10 to 100 nM

IC50 [2]: 10 to 100 nM
Structure (SMILES): [2H]C([2H])([2H])Nc1cc(Nc2cccn(C3CC4(CCOC4)C3)c2=O)nn2c(C(=O)N[C@@H]3C[C@H]4CCO[C@H]43)cnc12 (single isomer, unassigned) [Compound 96a]
IC50 [1, 3]: 10 to 100 nM

IC50 [2]: 10 to 100 nM
Structure (SMILES): [2H]C([2H])([2H])Nc1cc(Nc2cccn(C3CC4(CCCO4)C3)c2=O)nn2c(C(=O)N[C@@H]3C[C@H]4CCO[C@H]43)cnc12 (single isomer, unassigned) [Compound 98b]
IC50 ([1]; HEK-Blue IL-23 cells): 10 to 100 nM

IC50 [2]: 10 to 100 nM
Structure (SMILES): [2H]C([2H])([2H])Nc1cc(Nc2cccn(C3CC4(CCOC4)C3)c2=O)nc2c(C(=O)N[C@@H]3C[C@H]4CCO[C@H]43)cnn12 (single isomer, unassigned) [Compound 97b]
IC50 ([1]; HEK-Blue IL-23 cells): 10 to 100 nM

IC50 [2]: 10 to 100 nM
Structure (SMILES): [2H]C([2H])([2H])Nc1cc(Nc2cccn(C3CCCC4(COC4)C3)c2=O)nn2c(C(=O)N[C@@H]3C[C@H]4CCO[C@H]43)cnc12 (single isomer, unassigned) [Compound 68b]
IC50 ([1]; HEK-Blue IL-23 cells): < 10 nM

IC50 [2]: 10 to 100 nM
Structure (SMILES): CNc1cc(Nc2cccn(C3C[C@H]4CC[C@@H](C3)O4)c2=O)nn2c(C(=O)N[C@@H]3C[C@@H]3F)cnc12 (single isomer, unassigned) [Compound 79a]
IC50 [1, 3]: 10 to 100 nM
